Test: Water solubility confirmation (organic material content quantified by Karl Fisher method)
Type: physicochemical
Method: According to the composition shown in Tables 38 to 61, the water-soluble antioxidant emulsion was added to the natural polyphenol compound emulsion, and then mixing and dispersing were performed at 500 rpm or less while checking the properties of the emulsion to prepare an natural polyphenol compound-containing water-soluble emulsion composition containing a water-soluble antioxidant emulsion. […] After 1 hour of centrifugation and filtering, an organic material content was quantified by measuring a water content using a Karl Fisher method.

For `O=c1cc(-c2ccccc2)oc2cc(O)c(O)c(O)c12` [Generic Powdered Baicalein], which Water solubility is on record?
Its Water solubility is 0.00%.

For `COc1cc(/C=C/C(=O)CC(=O)/C=C/c2ccc(O)c(OC)c2)ccc1O` [Generic Powdered Curcumin], which Water solubility is on record?
The Water solubility was 0.00%.

For `O=c1cc(-c2ccc(O)c(O)c2)oc2cc(O)cc(O)c12` [Generic Powdered Luteolin], which Water solubility is on record?
The Water solubility was 0.02%.

Which Water solubility does the source give for `O=C1C[C@@H](c2ccc(O)cc2)Oc2cc(O)cc(O)c21` [Generic Powdered Naringenin] here?
Its Water solubility is 0.04%.

For `Oc1ccc(/C=C/c2cc(O)cc(O)c2)cc1` [Generic Powdered Resveratrol], which Water solubility is on record?
The Water solubility was 0.00%.

With `O=c1c(O)c(-c2ccc(O)cc2)oc2cc(O)cc(O)c12` [Generic Powdered kaempferol] as the compound, how does the Water solubility read?
Its Water solubility is 0.01%.

Which Water solubility does the source give for `COc1ccc([C@@H]2CC(=O)c3c(O)cc(O[C@@H]4O[C@H](CO[C@@H]5O[C@@H](C)[C@H](O)[C@@H](O)[C@H]5O)[C@@H](O)[C@H](O)[C@H]4O)cc3O2)cc1O` [Generic powdered Hesperidin] here?
Its Water solubility is 0.00%.

With `O=c1c(O)c(-c2ccc(O)c(O)c2)oc2cc(O)cc(O)c12` [Generic powdered Quercetin] as the compound, how does the Water solubility read?
Its Water solubility is 0.00%.

— patent EP4265127A1, “WATER-SOLUBLE EMULSION COMPOSITION CONTAINING NATURAL POLYPHENOL COMPOUND” (Yun, Kwan Sik, priority 2020, dated 2022)
